One data set deals with PANC02 cells. The experiment in a line: MTT cytotoxicity assay in PANC02 cells. In kind it is cell-based, murine. The settings on record: 96 h. As for the experimental part:
MTT assay. The combinational effect of PTX and GEM as well as the cytotoxicity of blank and drug-loaded micelles were investigated by MTT assay using murine pancreatic carcinoma cell lines PANC02 and H7 cells. Cells were seeded into a 96-well plate at a density of 5000 cells/well and incubated in 100 μL of Dulbecco's Modified Eagle medium (DMEM) containing 10% FBS for 24 h. Cells were treated with various concentrations of free PTX, GEM or micelles solution for 96 h. Then, 20 μL of MTT solution (5 mg/mL) were added to each well and the cells were incubated for another 4 h. After removing the medium, 100 μL of DMSO were added into each well to dissolve MTT formazan crystals. The optical density was measured using a microplate reader and the cell viability was calculated with untreated cells as a control.
(Formazan colour is commonly taken as a measure of viable cells.)

Another data set concerns CDA. The experiment in a line: CDA expression in PANC02 cells by western blot. Particulars: vs control group. In kind it is cell-based, murine. From the text: As described above, CDA is overexpressed in pancreatic cancer, which mediates the metabolism of cytidine analogue drugs, such as gemcitabine of GEM, leading to the resistance to treatment with these drugs. Thus, reducing the CDA expression provides a new therapeutic window for pancreatic cancer. We examined the CDA expression in PANC02 cells treated with various formulations by western blot.
(Immunoblotting shows a protein as a band on a membrane.)

`Nc1ccn([C@@H]2O[C@H](CO)[C@@H](O)C2(F)F)c(=O)n1` [free GEM, gemcitabine]: the “Cytotoxicity (cell killing effect, in words)” value in the data set with PANC02 cells is listed as “concentration-dependent cell killing effect”. Moreover, the CDA expression entry with CDA is listed as “not altered”.

For the origin of these results see US12083185B2, “Small polymeric carriers for delivery of agents” (University of Pittsburgh—Of the Commonwealth System of …, priority 2018, dated 2024).
